Test results published in the supplement of paper PMC10307832.

Legend:
Assay in all cases: relative viability (nuclei count vs DMSO), 5 days (fraction); higher = more cells survive
[1] = compound: CN1CCC(CC1)OC2=CC(=C(C=C2)NC3=NC=C4C(=N3)N(C(=O)N4C)C5CCCC5)OC [AZ3146] + CS(=O)(=O)N1CCN(Cc2cc3nc(-c4cccc5[nH]ncc45)nc(N4CCOCC4)c3s2)CC1 [Pictilisib] (partner 1 µM)
Outline: (§1)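 Medians of duplicate plates are given as relative viability. That measure is the nuclei count in treated wells divided by the count in vehicle wells. Counts were taken on 4× images of lung cancer cell lines in 1536-well plates, 5 days after pin-tool dosing the day after seeding with one drug alone or a fixed anchor-drug dose plus five library-drug doses (not always all listed) in √10 steps.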

[2] = compound: CCOC(=O)CCNc1cc(N2CCc3ccccc3CC2)nc(-c2ccccn2)n1 [GSK-J4] + COc1cc2c(Oc3ccc(NC(=O)C4(C(=O)Nc5ccc(F)cc5)CC4)cc3F)ccnc2cc1OCCCN1CCOCC1 [Foretinib] (partner 0.25 µM)
Outline: as §1

[3] = compound: CCOC(=O)CCNc1cc(N2CCc3ccccc3CC2)nc(-c2ccccn2)n1 [GSK-J4] + C[C@@H](Oc1cc(-c2cnn(C3CCNCC3)c2)cnc1N)c1c(Cl)ccc(F)c1Cl [Crizotinib] (partner 1 µM)
Outline: as §1

[4] = compound: CCOC(=O)CCNc1cc(N2CCc3ccccc3CC2)nc(-c2ccccn2)n1 [GSK-J4] + C[C@]1(O)C[C@@H](c2nc(-c3ccc4ccc(-c5ccccc5)nc4c3)c3c(N)nccn32)C1 [Linsitinib] (partner 1 µM)
Outline: as §1

Cell Line: CAL-12T
- relative viability ([1]; first compound 0.08 µM): 0.334
- relative viability ([1]; first compound 0.8 µM): 0.475
- relative viability ([1]; first compound 2.53 µM): 0.554
- relative viability ([1]; first compound 8 µM): 0.481
- relative viability ([2]; first compound 0.5 µM): 1.11
- relative viability ([2]; first compound 1.581 µM): 0.703
- relative viability ([2]; first compound 5 µM): 1.11
- relative viability ([2]; first compound 15.81 µM): 1.04
- relative viability ([2]; first compound 50 µM): 1.02
- relative viability ([3]; first compound 0.5 µM): 0.522
- relative viability ([3]; first compound 1.581 µM): 0.512
- relative viability ([3]; first compound 5 µM): 0.341
- relative viability ([3]; first compound 15.81 µM): 0.479
- relative viability ([3]; first compound 50 µM): 0.589
- relative viability ([4]; first compound 0.5 µM): 0.856
- relative viability ([4]; first compound 1.581 µM): 0.776
- relative viability ([4]; first compound 5 µM): 0.776
- relative viability ([4]; first compound 15.81 µM): 0.742
- relative viability ([4]; first compound 50 µM): 0.648

Cell Line: EPLC-272H
- relative viability ([1]; first compound 0.08 µM): 0.274
- relative viability ([1]; first compound 0.253 µM): 0.322
- relative viability ([1]; first compound 0.8 µM): 0.3
- relative viability ([1]; first compound 2.53 µM): 0.263
- relative viability ([1]; first compound 8 µM): 0.265
- relative viability ([2]; first compound 0.5 µM): 0.723
- relative viability ([2]; first compound 1.581 µM): 0.547
- relative viability ([2]; first compound 5 µM): 0.819
- relative viability ([2]; first compound 15.81 µM): 0.514
- relative viability ([2]; first compound 50 µM): 0.26
- relative viability ([3]; first compound 0.5 µM): 0.956
- relative viability ([3]; first compound 5 µM): 1.14
- relative viability ([3]; first compound 15.81 µM): 0.816
- relative viability ([3]; first compound 50 µM): 0.915
- relative viability ([4]; first compound 0.5 µM): 1.16
- relative viability ([4]; first compound 5 µM): 1.31
- relative viability ([4]; first compound 15.81 µM): 1.02
- relative viability ([4]; first compound 50 µM): 1.11

Cell Line: NCI-H1299
- relative viability ([1]; first compound 0.08 µM): 0.786
- relative viability ([1]; first compound 0.253 µM): 0.976
- relative viability ([1]; first compound 0.8 µM): 0.677
- relative viability ([1]; first compound 2.53 µM): 0.734
- relative viability ([1]; first compound 8 µM): 0.264
- relative viability ([2]; first compound 0.5 µM): 1.06
- relative viability ([2]; first compound 1.581 µM): 1.03
- relative viability ([2]; first compound 5 µM): 0.994
- relative viability ([2]; first compound 15.81 µM): 1.07
- relative viability ([2]; first compound 50 µM): 1.11
- relative viability ([3]; first compound 0.5 µM): 0.984
- relative viability ([3]; first compound 1.581 µM): 0.91
- relative viability ([3]; first compound 5 µM): 0.873
- relative viability ([3]; first compound 15.81 µM): 0.937
- relative viability ([3]; first compound 50 µM): 0.923
- relative viability ([4]; first compound 0.5 µM): 0.979
- relative viability ([4]; first compound 1.581 µM): 0.881
- relative viability ([4]; first compound 5 µM): 0.813
- relative viability ([4]; first compound 15.81 µM): 0.962
- relative viability ([4]; first compound 50 µM): 0.988

Cell Line: ABC-1
- relative viability ([1]; first compound 0.08 µM): 0.566
- relative viability ([1]; first compound 0.253 µM): 0.866
- relative viability ([1]; first compound 0.8 µM): 0.687
- relative viability ([1]; first compound 2.53 µM): 0.878
- relative viability ([1]; first compound 8 µM): 0.723
- relative viability ([2]; first compound 0.5 µM): 1.04
- relative viability ([2]; first compound 1.581 µM): 0.63
- relative viability ([2]; first compound 5 µM): 1.06
- relative viability ([2]; first compound 15.81 µM): 0.989
- relative viability ([2]; first compound 50 µM): 0.846
- relative viability ([3]; first compound 0.5 µM): 1.03
- relative viability ([3]; first compound 1.581 µM): 0.953
- relative viability ([3]; first compound 5 µM): 1.17
- relative viability ([3]; first compound 15.81 µM): 0.81
- relative viability ([3]; first compound 50 µM): 0.343
- relative viability ([4]; first compound 0.5 µM): 0.788
- relative viability ([4]; first compound 1.581 µM): 0.632
- relative viability ([4]; first compound 5 µM): 1.07
- relative viability ([4]; first compound 15.81 µM): 0.802
- relative viability ([4]; first compound 50 µM): 0.378

Cell Line: NCI-H358
- relative viability ([1]; first compound 0.08 µM): 0.355
- relative viability ([1]; first compound 0.253 µM): 0.39
- relative viability ([1]; first compound 0.8 µM): 0.394
- relative viability ([1]; first compound 2.53 µM): 0.398
- relative viability ([1]; first compound 8 µM): 0.326
- relative viability ([2]; first compound 0.5 µM): 0.677
- relative viability ([2]; first compound 1.581 µM): 0.684
- relative viability ([2]; first compound 5 µM): 0.639
- relative viability ([2]; first compound 15.81 µM): 0.616
- relative viability ([2]; first compound 50 µM): 0.631
- relative viability ([3]; first compound 0.5 µM): 0.643
- relative viability ([3]; first compound 1.581 µM): 0.579
- relative viability ([3]; first compound 5 µM): 0.537
- relative viability ([3]; first compound 15.81 µM): 0.55
- relative viability ([3]; first compound 50 µM): 0.589
- relative viability ([4]; first compound 0.5 µM): 0.682
- relative viability ([4]; first compound 1.581 µM): 0.513
- relative viability ([4]; first compound 5 µM): 0.746
- relative viability ([4]; first compound 15.81 µM): 0.717
- relative viability ([4]; first compound 50 µM): 0.857

Cell Line: NCI-H1437
- relative viability ([1]; first compound 0.08 µM): 0.432
- relative viability ([1]; first compound 0.253 µM): 0.376
- relative viability ([1]; first compound 0.8 µM): 0.45
- relative viability ([1]; first compound 2.53 µM): 0.393
- relative viability ([1]; first compound 8 µM): 0.461
- relative viability ([2]; first compound 0.5 µM): 1.29
- relative viability ([2]; first compound 1.581 µM): 0.715
- relative viability ([2]; first compound 5 µM): 1.23
- relative viability ([2]; first compound 15.81 µM): 1.24
- relative viability ([2]; first compound 50 µM): 0.766
- relative viability ([3]; first compound 0.5 µM): 0.76
- relative viability ([3]; first compound 1.581 µM): 0.917
- relative viability ([3]; first compound 5 µM): 0.924
- relative viability ([3]; first compound 15.81 µM): 0.897
- relative viability ([3]; first compound 50 µM): 0.436
- relative viability ([4]; first compound 0.5 µM): 0.928
- relative viability ([4]; first compound 1.581 µM): 0.993
- relative viability ([4]; first compound 5 µM): 0.988
- relative viability ([4]; first compound 15.81 µM): 0.881
- relative viability ([4]; first compound 50 µM): 0.222

Cell Line: EKVX
- relative viability ([1]; first compound 0.08 µM): 0.417
- relative viability ([1]; first compound 0.253 µM): 0.433
- relative viability ([1]; first compound 0.8 µM): 0.259
- relative viability ([1]; first compound 2.53 µM): 0.407
- relative viability ([1]; first compound 8 µM): 0.545
- relative viability ([2]; first compound 0.5 µM): 0.757
- relative viability ([2]; first compound 1.581 µM): 0.221
- relative viability ([2]; first compound 5 µM): 0.754
- relative viability ([2]; first compound 15.81 µM): 0.315
- relative viability ([2]; first compound 50 µM): 0.908
- relative viability ([3]; first compound 0.5 µM): 0.755
- relative viability ([3]; first compound 1.581 µM): 0.883
- relative viability ([3]; first compound 5 µM): 0.927
- relative viability ([3]; first compound 15.81 µM): 0.91
- relative viability ([3]; first compound 50 µM): 0.889
- relative viability ([4]; first compound 0.5 µM): 0.928
- relative viability ([4]; first compound 1.581 µM): 0.832
- relative viability ([4]; first compound 5 µM): 1.16
- relative viability ([4]; first compound 15.81 µM): 0.836
- relative viability ([4]; first compound 50 µM): 0.902

Cell Line: NCI-H3122
- relative viability ([1]; first compound 0.08 µM): 0.613
- relative viability ([1]; first compound 0.253 µM): 0.614
- relative viability ([1]; first compound 0.8 µM): 0.555
- relative viability ([1]; first compound 2.53 µM): 0.639
- relative viability ([1]; first compound 8 µM): 0.684
- relative viability ([2]; first compound 0.5 µM): 0.983
- relative viability ([2]; first compound 1.581 µM): 1.01
- relative viability ([2]; first compound 5 µM): 0.938
- relative viability ([2]; first compound 15.81 µM): 1.05
- relative viability ([2]; first compound 50 µM): 0.969
- relative viability ([3]; first compound 0.5 µM): 0.287
- relative viability ([3]; first compound 1.581 µM): 0.275
- relative viability ([3]; first compound 5 µM): 0.27
- relative viability ([3]; first compound 15.81 µM): 0.243
- relative viability ([3]; first compound 50 µM): 0.283
- relative viability ([4]; first compound 0.5 µM): 0.939
- relative viability ([4]; first compound 1.581 µM): 1.04
- relative viability ([4]; first compound 5 µM): 1.04
- relative viability ([4]; first compound 15.81 µM): 0.998
- relative viability ([4]; first compound 50 µM): 0.98
